Data published in patent US20080132577A1, “Use of agomelatine in obtaining medicaments intended for the treatment of smith-magenis syndrome” (LES LABORATOIRES SERVIER, priority 2006, published 2008).

Experiments:
[1] = system: Smith-Magenis syndrome patients; details: evening exogenous melatonin with morning beta-adrenergic antagonists; cited from earlier work
[2] = system: children with Smith-Magenis syndrome; experiment: Exploratory phase II clinical study in children with Smith-Magenis syndrome (actigraphy, Achenbach questionnaire); format: in vivo, human; details: agomelatine 1-5 mg/kg co-administered with acebutolol 10 mg/kg
Description: An exploratory phase II study was carried out in children with Smith-Magenis syndrome. Agomelatine 1-5 mg/kg was co-administered with acebutolol 10 mg/kg, a […]. The main analysis criteria were actigraphy parameters recorded over five periods of 30 consecutive days, after 30 days of treatment, and 3, 5 and 15 months of treatment, and also the Achenbach questionnaire, allowing the behaviour disorders to be assessed.
These major effects were carried over to the families, who, following the highly positive consequences of the treatment on family life, requested continuation of the treatment on a compassionate basis.

[3] = system: patients; experiment: Clinical trials of agomelatine: acceptability, tolerability and drug interactions; format: in vivo, human
Excerpt: In fact, agomelatine makes it possible to act simultaneously on the behaviour disorders and on the resynchronisation of disturbed circadian rhythms.

[4] = actigraphy, up to 15 months of treatment

| Compound | activity in respect of the behaviour disorders [1] | behaviour (behaviour disorders, Achenbach questionnaire) [2] | clinical improvement found by a specialist [2] | sleep quality recorded [2] | duration of daytime naps [2, 4] | duration of night waking [2, 4] | frequency of night waking [2, 4] | drug interactions ([3]; human, in vivo) | clinical and biological tolerability ([3]; more than 4000 patients exposed in clinical trials) |
| --- | --- | --- | --- | --- | --- | --- | --- | --- | --- |
| COc1ccc2[nH]cc(CCNC(C)=O)c2c1 [melatonin] | no activity |  |  |  |  |  |  |  |  |
| COc1ccc2cccc(CCNC(C)=O)c2c1 [agomelatine, N-[2-(7-methoxy-1-naphthyl)ethyl]acetamide] |  | Real progress in relation to behaviour | Major clinical improvement | a calm, deep sleep, less-broken nights and less-early waking in the morning | reduction in the duration of daytime naps | reduction | reduction | no drug interactions | excellent clinical and biological tolerability |
